From US11279708B2, “Amidino- and amino-rocaglates as novel translation inhibitors and anticancer agents” (priority 2019, dated 2022)

Experiments:
eIF4A2:poly r(AG)8 RNA = target: T1, eIF4A2:poly r(AG)8 RNA (Homo sapiens, UniProt Q14240); test: fluorescence polarization (FP) assay, eIF4A2 binding to FAM-labelled RNA; details: 10 μM CR-1-31-B
T1 construct: His6 (N); made in house; host or cells: E. coli BL21 (DE3)
Text: Rocaglates similarly enhance RNA binding of eIF4A1 and eIF4A2. In order to rapidly evaluate the ability of rocaglates to stimulate binding of eIF4A to RNA, a fluorescence polarization (FP) assay using a FAM (fluorescein amidite)-labelled RNA probe (FIG. 18A) was used. […] Due to the high degree of shared amino acid identity between the two paralogs, their apparent similarity with respect to RNA binding activity and response to CR-1-31-B (23), and the fact that eIF4A1 is essential but eIF4A2 is not, eIF4A1 was used in the majority of our subsequent experiments.
Fluorescence Polarization (FP) Assays. Unless otherwise specified, eIF4A (500 nM) was incubated with 10 nM FAM-labelled RNA for 30 min in FP buffer (14.4 mM HEPES-NaOH (pH 8), 108 mM NaCl, 1 mM MgCl2, 14.4% glycerol, 0.1% DMSO, 2 mM DTT, 1 mM AMPPNP) at room temperature in black low volume 384 well plates (Corning 3820). FP readings were performed on a Pherastar FS microplate reader (BMG Labtech).
FIGS. 17A-17F. Assessment of eIF4A1 and eIF4A2 RNA binding specificity. 17A. Chemical structure of the most commonly used rocaglates in biological studies 17B. Coomassie blue staining of SDS-PAGE showing eIF4A1 and eIF4A2 preparations used herein. […]

eIF4A1:poly r(AG)10 = target: T2, eIF4A1:poly r(AG)10 (Homo sapiens, UniProt P60842); test: FP competition assay, dissociation of eIF4A from (AG)10 RNA; format: binding; details: in the presence of compound
T2 construct: His6 (N); made in house; host or cells: E. coli BL21 (DE3)
Experimental: All of these identified compounds retained similar RNA sequence binding preference for eIF4A1 with a bias for polypurine-containing substrates over polypyrimidines (FIG. 17). […] Even in the presence of ATP, which stimulates release of eIF4A from RNA, the half-life of the complexes were much longer than the rates of translation initiation (median <1 min)
Rocaglates sequester eIF4F onto RNA. RocA (2) induced clamping of eIF4A to 5′ leader regions have been proposed to inhibit translation by blocking scanning of 43S PICs. We therefore sought to test if this mechanism was sufficient to account for the translation inhibition observed with RocA, CR-1-31-B (23), and the newly identified ADRs. We supplemented translation extracts programmed with m^7G-(AG)10-FF/HCV/Ren mRNA with wild-type (wt) or rocaglate-resistant eIF4A1(F163L) recombinant protein. […] Thus, if stabilization of endogenous eIF4A in translation extracts onto mRNA is sufficient to mediate translation inhibition, then the addition of recombinant eIF4A1^F163L should not be able to rescue this inhibition. […]
FIG. 21. […] FP results of competition assays in which preformed eIF4A1:rocaglate:FAM-poly r(AG)10 complexes were incubated in the presence of poly r(AG)10 (SEQ ID NO: 39) and dissociation measured as a function of time. n=3±SD.

T2 sequence (P60842 whole entry, species assumed): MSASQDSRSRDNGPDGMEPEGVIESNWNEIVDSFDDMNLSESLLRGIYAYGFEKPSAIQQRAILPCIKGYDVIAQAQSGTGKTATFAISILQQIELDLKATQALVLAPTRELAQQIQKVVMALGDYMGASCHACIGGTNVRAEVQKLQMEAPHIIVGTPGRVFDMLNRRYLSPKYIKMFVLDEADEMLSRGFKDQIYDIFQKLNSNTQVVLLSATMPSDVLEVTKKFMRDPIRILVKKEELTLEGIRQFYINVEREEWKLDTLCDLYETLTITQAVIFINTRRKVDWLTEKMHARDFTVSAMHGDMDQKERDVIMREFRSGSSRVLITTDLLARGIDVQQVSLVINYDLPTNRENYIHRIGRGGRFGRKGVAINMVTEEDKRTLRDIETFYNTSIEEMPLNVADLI
T1 sequence (Q14240 whole entry, species assumed): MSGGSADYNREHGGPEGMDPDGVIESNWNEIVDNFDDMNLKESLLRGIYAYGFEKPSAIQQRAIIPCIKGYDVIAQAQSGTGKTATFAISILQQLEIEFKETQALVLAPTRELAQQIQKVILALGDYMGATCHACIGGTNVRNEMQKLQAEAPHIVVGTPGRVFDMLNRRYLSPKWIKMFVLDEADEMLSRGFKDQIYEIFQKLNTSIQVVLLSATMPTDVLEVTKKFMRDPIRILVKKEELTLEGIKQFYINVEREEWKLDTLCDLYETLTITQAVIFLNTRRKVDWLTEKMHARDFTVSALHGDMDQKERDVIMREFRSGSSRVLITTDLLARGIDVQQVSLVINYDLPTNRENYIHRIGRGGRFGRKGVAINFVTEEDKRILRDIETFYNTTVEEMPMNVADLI

Row | SMILES | stimulation of eIF4A2:RNA binding (in words) (eIF4A2:poly r(AG)8 RNA) | dissociation of eIF4A from (AG)10, t1/2 (eIF4A1:poly r(AG)10)
1 | CONC(=O)[C@H]1[C@@H](O)[C@@]2(O)c3c(OC)cc(OC)cc3O[C@@]2(c2ccc(OC)cc2)[C@@H]1c1ccccc1 [CR-1-31-B] | equally stimulates binding of both eIF4A1 and eIF4A2 | –
2 | COc1ccc([C@@]23Oc4cc(OC)cc(OC)c4[C@]2(O)[C@H](O)[C@H](C(=O)N(C)C)[C@H]3c2ccccc2)cc1 [RocA, rocaglamide A] | – | 27 min
